The values that follow come from US20250302815A1, “PROTEIN TYROSINE PHOSPHATASE TARGETING LIGANDS” (CALICO LIFE SCIENCES LLC, priority 2021, published 2025).

Structures are written as SMILES. A value given as a limit tells only on which side of the number the result lay.

One experiment concerns the target T1, PTPN2 (B16F10.4 cells) (Mus musculus, UniProt Q06180).
T1 construct: HiBiT; host or cells: B16F10.4
T1 sequence (Q06180 1-406): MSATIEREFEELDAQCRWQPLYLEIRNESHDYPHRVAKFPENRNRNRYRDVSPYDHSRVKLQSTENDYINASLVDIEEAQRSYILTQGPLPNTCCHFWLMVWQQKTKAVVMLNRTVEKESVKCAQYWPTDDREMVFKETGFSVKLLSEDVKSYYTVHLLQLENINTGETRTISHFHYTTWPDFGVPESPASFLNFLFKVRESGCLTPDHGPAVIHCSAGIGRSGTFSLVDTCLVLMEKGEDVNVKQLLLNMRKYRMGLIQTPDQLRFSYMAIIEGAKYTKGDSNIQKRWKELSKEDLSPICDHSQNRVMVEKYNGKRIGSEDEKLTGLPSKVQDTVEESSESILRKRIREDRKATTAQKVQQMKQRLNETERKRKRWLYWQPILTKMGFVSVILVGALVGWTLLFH
Nature of the experiment: HiBiT Degradation B16F10.4 PTPN2. The experiment is classed as cell-based. Particulars: 24.0 hours. Background: HiBiT is a short tag that completes a luciferase, so light tracks the accessible tagged protein.

Experiment [1] concerns the target T2, PTPN2 (HiBIT-PTPN2 in 293T.109 cells) (Homo sapiens, UniProt P17706).
T2 construct: expressed in transfected cells; host or cells: 293T.109 (293T WT from ATCC)
T2 sequence (P17706 1-415): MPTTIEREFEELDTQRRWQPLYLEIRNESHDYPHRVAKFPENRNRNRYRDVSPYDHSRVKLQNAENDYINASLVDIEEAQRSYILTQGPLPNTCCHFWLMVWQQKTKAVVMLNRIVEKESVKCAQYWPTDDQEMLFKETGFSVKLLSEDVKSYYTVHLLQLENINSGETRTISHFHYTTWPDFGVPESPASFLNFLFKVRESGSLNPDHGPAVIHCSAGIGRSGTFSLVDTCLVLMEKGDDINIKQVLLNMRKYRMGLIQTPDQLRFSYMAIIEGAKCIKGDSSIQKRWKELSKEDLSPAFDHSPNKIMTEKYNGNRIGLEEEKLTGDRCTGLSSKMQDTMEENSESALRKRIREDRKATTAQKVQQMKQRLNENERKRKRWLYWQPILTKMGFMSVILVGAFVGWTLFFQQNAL
Kind of experiment: HiBiT Degradation 293T.109 PTPN2 (Nano-Glo HiBiT Lytic Assay). Particulars: 24.0 hours. The class given is cell-based. The essentials:
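Degradation read-out: lytic HiBiT luminescence after 24 h treatment (37 °C, 5% CO2) of 5000 293T cells per well expressing HiBiT-fused PTPN2 from an N-terminal tag. Dosing was 11 points, half-log steps down from 10 μM, in duplicate; vehicle-treated and no-reagent wells served as controls.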

Take `CC1(C)C[C@@H](Nc2cccc(-c3sc(C(=O)O)c(OCC(=O)O)c3Cl)c2)CCN1S(=O)(=O)Cc1cccc(NC(=O)N2CCC(c3ccc4c(c3)c3cccnc3n4C3CCC(=O)NC3=O)CC2)c1` (stereo partly drawn) [Example 195, 3-(carboxymethoxy)-4-chloro-5-[3-[[(4S)-1-[[3-[[4-[9-(2,6-dioxo-3-piperidyl)pyrido[2,3-b]indol-6-yl]piperidine-1-carbonyl]amino]phenyl]methylsulfonyl]-2,2-dimethyl-4-piperidyl]amino]phenyl]thiophene-2-carboxylic acid]: the DC50 (at PTPN2 (B16F10.4 cells); in experiment [1]) was 0.2 to 1 µM throughout.

In the case of `CC1(C)C[C@@H](Nc2cccc(-c3sc(C(=O)O)c(OCC(=O)O)c3Cl)c2)CCN1S(=O)(=O)Cc1cccc(NC(=O)N2CCC(Cc3ccc4c5c(cccc35)C(=O)N4C3CCC(=O)NC3=O)CC2)c1` (stereo partly drawn) [Example 158, 3-(carboxymethoxy)-4-chloro-5-(3-(((4S)-1-((3-(4-((1-(2,6-dioxopiperidin-3-yl)-2-oxo-1,2-dihydrobenzo[cd]indol-6-yl)methyl)piperidine-1-carboxamido)benzyl)sulfonyl)-2,2-dimethylpiperidin-4-yl)amino)phenyl)thiophene-2-carboxylic acid], the DC50 (usually the midpoint of the concentration-degradation curve) on PTPN2 (B16F10.4 cells) is less than 0.05 µM; in experiment [1], 0.05 to 0.2 µM.

`Cn1c(=O)n(C2CCC(=O)NC2=O)c2ccc(N3CCC(N4CCN(c5cccc(CS(=O)(=O)N6CC[C@H](Nc7cccc(-c8sc(C(=O)O)c(OCC(=O)O)c8Cl)c7)CC6(C)C)c5)C4=O)CC3)cc21` (stereo partly drawn) [Example 198, 3-(carboxymethoxy)-4-chloro-5-[3-[[(4S)-1-[3-[3-[[1-[1-(2,6-dioxo-3-piperidyl)-3-methyl-2-oxo-benzimidazol-5-yl]-4-piperidyl]-2-oxo-imidazolidin-1-yl]phenyl]methylsulfonyl]-2,2-dimethyl-4-piperidyl]amino]phenyl]thiophene-2-carboxylic acid]: the DC50 (on PTPN2 (B16F10.4 cells); in experiment [1]) was 0.05 to 0.2 µM each time.

With `Cn1c(=O)n(C2CCC(=O)NC2=O)c2ccc(-c3cnn(CC(=O)Nc4cccc(CS(=O)(=O)N5CC[C@H](Nc6cccc(-c7sc(C(=O)O)c(OCC(=O)O)c7Cl)c6)CC5(C)C)c4)c3)cc21` (stereo partly drawn) [Example 194, 3-(carboxymethoxy)-4-chloro-5-[3-[[(4S)-1-[[3-[[2-[4-[1-(2,6-dioxo-3-piperidyl)-3-methyl-2-oxo-benzimidazol-5-yl]pyrazol-1-yl]acetyl]amino]phenyl]methylsulfonyl]-2,2-dimethyl-4-piperidyl]amino]phenyl]thiophene-2-carboxylic acid], the results for the DC50 (on PTPN2 (B16F10.4 cells); in experiment [1]) were 0.05 to 0.2 µM and 0.2 to 1 µM, respectively.

For `Cn1c(=O)n(C2CCC(=O)NC2=O)c2ccc(N3CCC(C(=O)Nc4cccc(CS(=O)(=O)N5CC[C@H](Nc6cccc(-c7sc(C(=O)O)c(OCC(=O)O)c7Cl)c6)CC5(C)C)c4)CC3)cc21` (stereo partly drawn) [Example 122], the DC50 (at PTPN2 (B16F10.4 cells); in experiment [1]) was 0.05 to 0.2 µM throughout.

For the compound `Cn1c(=O)n(C2CCC(=O)NC2=O)c2ccc(-c3ccc(CC(=O)Nc4cccc(CS(=O)(=O)N5CC[C@H](Nc6cccc(-c7sc(C(=O)O)c(OCC(=O)O)c7Cl)c6)CC5(C)C)c4)cc3F)cc21` (stereo partly drawn) [Example 178, 3-(carboxymethoxy)-4-chloro-5-(3-(((4S)-1-((3-(2-(4-(1-(2,6-dioxopiperidin-3-yl)-3-methyl-2-oxo-2,3-dihydro-1H-benzo[d]imidazol-5-yl)-3-fluorophenyl)acetamido)benzyl)sulfonyl)-2,2-dimethylpiperidin-4-yl)amino)phenyl)thiophene-2-carboxylic acid], the DC50 (on PTPN2 (B16F10.4 cells); in experiment [1]) was 0.05 to 0.2 µM each time.

Consider `CC1(C)C[C@@H](Nc2cccc(-c3sc(C(=O)O)c(OCC(=O)O)c3Cl)c2)CCN1S(=O)(=O)Cc1cccc(N2CCN(CCCc3ccc4c5c(cccc35)C(=O)N4C3CCC(=O)NC3=O)C2=O)c1` (stereo partly drawn) [Example 202], for which the DC50 on PTPN2 (B16F10.4 cells) lay within 0.05 to 0.2 µM; in experiment [1] it was 0.2 to 1 µM.

In the case of `CC1(C)C[C@@H](Nc2cccc(-c3sc(C(=O)O)c(OCC(=O)O)c3Cl)c2)CCN1S(=O)(=O)Cc1cccc(NC(=O)CN2CCC(c3ccc4c(c3)oc(=O)n4C3CCC(=O)NC3=O)CC2)c1` (stereo partly drawn) [Example 70, 3-(Carboxymethoxy)-4-chloro-5-[3-[[(4S)-1-[[3-[[2-[4-[3-(2,6-dioxo-3-piperidyl)-2-oxo-1,3-benzoxazol-6-yl]-1-piperidyl]acetyl]amino]phenyl]methylsulfonyl]-2,2-dimethyl-4-piperidyl]amino]phenyl]thiophene-2-carboxylic acid], the DC50 on PTPN2 (B16F10.4 cells) lay within 0.2 to 1 µM; in experiment [1], 0.05 to 0.2 µM.

As for `CC1(C)C[C@H](Nc2cccc(-c3sc(C(=O)O)c(OCC(=O)O)c3Cl)c2)CCN1S(=O)(=O)Cc1cccc(NC(=O)N2CCC(c3ccc4c(C5CCC(=O)NC5=O)cnn4c3)CC2)c1` (stereo partly drawn) [Example 193, 3-(carboxymethoxy)-4-chloro-5-(3-(((4R)-1-((3-(4-(3-(2,6-dioxopiperidin-3-yl)pyrazolo[1,5-a]pyridin-6-yl)piperidine-1-carboxamido)benzyl)sulfonyl)-2,2-dimethylpiperidin-4-yl)amino)phenyl)thiophene-2-carboxylic acid], the DC50 (on PTPN2 (B16F10.4 cells); in experiment [1]) was 0.2 to 1 µM throughout.

With `O=C(O)COc1c(C(=O)O)sc(-c2cccc(NC3CCN(S(=O)(=O)Cc4cccc(NC(=O)CCc5ccc6c(c5)CN(C5CCC(=O)NC5=O)C6=O)c4)CC3)c2)c1Cl` (stereo not drawn) [Example 47], the DC50 (on PTPN2 (B16F10.4 cells); in experiment [1]) was 0.2 to 1 µM in each case.

Take `CC1(C)C[C@@H](Nc2cccc(-c3sc(C(=O)O)c(OCC(=O)O)c3Cl)c2)CCN1S(=O)(=O)Cc1cccc(NC(=O)N2CCC(c3ccc4c5c(cccc35)C(=O)N4C3CCC(=O)NC3=O)CC2)c1F` (stereo partly drawn) [Example 128, 3-(carboxymethoxy)-4-chloro-5-(3-(((4S)-1-((3-(4-(1-(2,6-dioxopiperidin-3-yl)-2-oxo-1,2-dihydrobenzo[cd]indol-6-yl)piperidine-1-carboxamido)-2-fluorobenzyl)sulfonyl)-2,2-dimethylpiperidin-4-yl)amino)phenyl)thiophene-2-carboxylic acid]: the results for the DC50 (on PTPN2 (B16F10.4 cells); in experiment [1]) were less than 0.05 µM and 0.05 to 0.2 µM, respectively.

Consider `Cn1nc(C2CCC(=O)NC2=O)c2ccc(C3CCN(C(=O)Nc4cccc(CS(=O)(=O)N5CC[C@H](Nc6cccc(-c7sc(C(=O)O)c(OCC(=O)O)c7Cl)c6)CC5(C)C)c4)CC3)cc21` (stereo partly drawn) [Example 143, 3-(carboxymethoxy)-4-chloro-5-[3-[[(4S)-1-[[3-[[4-[3-(2,6-dioxo-3-piperidyl)-1-methyl-indazol-6-yl]piperidine-1-carbonyl]amino]phenyl]methylsulfonyl]-2,2-dimethyl-4-piperidyl]amino]phenyl]thiophene-2-carboxylic acid], for which the DC50 (on PTPN2 (B16F10.4 cells); in experiment [1]) was 0.05 to 0.2 µM throughout.

As for `Cn1c(=O)n(C2CCC(=O)NC2=O)c2ccc(N3CCC4(CC3)CN(C(=O)Nc3cccc(CS(=O)(=O)N5CCC(Nc6cccc(-c7sc(C(=O)O)c(OCC(=O)O)c7Cl)c6)CC5)c3)C4)cc21` (stereo not drawn) [Example 102, 3-(carboxymethoxy)-4-chloro-5-[3-[[1-[[3-[[7-[1-(2,6-dioxo-3-piperidyl)-3-methyl-2-oxo-benzimidazol-5-yl]-2,7-diazaspiro[3.5]nonane-2-carbonyl]amino]phenyl]methylsulfonyl]-4-piperidyl]amino]phenyl]thiophene-2-carboxylic acid], the DC50 (at PTPN2 (B16F10.4 cells); in experiment [1]) was 0.05 to 0.2 µM throughout.

With `Cn1c(=O)n(C2CCC(=O)NC2=O)c2ccc([C@H]3CCN(C(=O)Nc4cccc(CS(=O)(=O)N5CC[C@H](Nc6cccc(-c7sc(C(=O)O)c(OCC(=O)O)c7Cl)c6)CC5(C)C)c4)CC3(F)F)cc21` (stereo partly drawn) [Example 168, 3-(carboxymethoxy)-4-chloro-5-(3-(((4S)-1-((3-((4R)-4-(1-(2,6-dioxopiperidin-3-yl)-3-methyl-2-oxo-2,3-dihydro-1H-benzo[d]imidazol-5-yl)-3,3-difluoropiperidine-1-carboxamido)benzyl)sulfonyl)-2,2-dimethylpiperidin-4-yl)amino)phenyl)thiophene-2-carboxylic acid], the DC50 on PTPN2 (B16F10.4 cells) was less than 0.05 µM; in experiment [1], 0.05 to 0.2 µM.

As to `O=C(O)COc1c(C(=O)O)sc(-c2cccc(NC3CCN(S(=O)(=O)Cc4cccc(NC(=O)C5CN(C(=O)CNc6cccc7c6CN(C6CCC(=O)NC6=O)C7=O)C5)c4F)CC3)c2)c1Cl` (stereo not drawn) [Example 75], the DC50 at PTPN2 (B16F10.4 cells) was no less than 1 µM; in experiment [1], less than 0.05 µM.
